In ChEMBL document CHEMBL1131787, “Effects of ortho-substituent groups of sulochrin on inhibitory activity to eosinophil degranulation” (Bioorg Med Chem Lett, 1999):

Assay: Inhibitory activity against eosinophil degranulation
Assay type: functional

For `CCCCOC(=O)c1cc(O)cc(OC)c1C(=O)c1c(O)cc(C)cc1O`, the IC50 was 40 nM.
With `CCOC(=O)c1cc(O)cc(OC)c1C(=O)c1c(O)cc(C)cc1O` the IC50 was 100 nM.
`COc1cc(O)cc(C(=O)O)c1C(=O)c1c(O)cc(C)cc1O` gave an IC50 of over 10000 nM.
`COC(=O)c1cc(O)cc(O)c1C(=O)c1c(O)cc(C)cc1OC` gave an IC50 of 400 nM.
Work on `CCCOC(=O)c1cc(O)cc(OC)c1C(=O)c1c(O)cc(C)cc1O` yielded an IC50 of 100 nM.
With `CCCCCCOC(=O)c1cc(O)cc(OC)c1C(=O)c1c(O)cc(C)cc1O` the IC50 was 300 nM.
For `COC(=O)c1cc(O)cc(OC)c1C(=O)c1c(OCCO)cc(C)cc1OCCO`, the IC50 was over 10000 nM.
For `COC(=O)c1cc(O)cc(O)c1C(=O)c1c(O)cc(C)cc1O`, the IC50 was over 10000 nM.
`CCC(C)OC(=O)c1cc(O)cc(OC)c1C(=O)c1c(O)cc(C)cc1O` (stereo not drawn) showed an IC50 of 30 nM.
`COC(=O)c1cc(O)cc(OC)c1C(=O)c1c(O)cc(C)cc1OC` showed an IC50 of 300 nM.
For `COC(=O)c1cc(O)cc(O)c1C(=O)c1c(OC)cc(C)cc1OC`, the IC50 was over 10000 nM.
In the case of `COC(=O)c1cc(O)cc(OC)c1C(=O)c1c(O)cc(C)cc1O` [SULOCHRIN], the IC50 is reported as 100 nM.
With `COc1cc(O)ccc1C(=O)c1c(O)cc(C)cc1O` the IC50 was over 10000 nM.
